Source: the kinase profiling compilation of Christmann-Franck et al. (2016)

Tests used:
Assay in all cases: radiometric filter-binding kinase assay, Kinase HotSpot
Conditions in all cases: compound 0.5 µM; ATP 10 µM
[1] = molecular target: ABL1 (human) (UniProt P00519)
[2] = molecular target: ACVRL1 (human) (UniProt P37023)
[3] = molecular target: AKT1 (human) (UniProt P31749)
[4] = molecular target: AURKC (human) (UniProt Q9UQB9)
[5] = molecular target: CDC42BPA (human) (UniProt Q5VT25)
[6] = molecular target: CDK6 CCND3 (human) (UniProt P30281+Q00534)
[7] = molecular target: CDK9 CCNK (human) (UniProt O75909+P50750)
[8] = molecular target: CHUK (human) (UniProt O15111)
[9] = molecular target: CSK (human) (UniProt P41240)
[10] = molecular target: CSNK1G2 (human) (UniProt P78368)
Chain of CSNK1G2 (human) (P78368 whole entry, looked up): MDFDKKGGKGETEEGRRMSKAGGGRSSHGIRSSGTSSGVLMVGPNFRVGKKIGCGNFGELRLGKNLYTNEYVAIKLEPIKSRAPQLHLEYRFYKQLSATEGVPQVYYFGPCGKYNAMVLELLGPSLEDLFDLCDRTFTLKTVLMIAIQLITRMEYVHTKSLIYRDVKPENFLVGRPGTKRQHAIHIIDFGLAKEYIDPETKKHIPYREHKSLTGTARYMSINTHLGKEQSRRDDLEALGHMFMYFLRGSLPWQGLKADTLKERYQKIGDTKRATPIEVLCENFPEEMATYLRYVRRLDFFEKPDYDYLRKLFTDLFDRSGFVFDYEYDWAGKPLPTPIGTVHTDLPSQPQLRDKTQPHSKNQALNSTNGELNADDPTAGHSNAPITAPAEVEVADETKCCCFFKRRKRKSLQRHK

[11] = molecular target: CSNK2A1 (human) (UniProt P68400)
[12] = molecular target: DCLK2 (human) (UniProt Q8N568)
[13] = molecular target: DYRK1B (human) (UniProt Q9Y463)
[14] = molecular target: DYRK2 (human) (UniProt Q92630)
[15] = molecular target: EGFR (human) (UniProt P00533)
[16] = molecular target: EPHA1 (human) (UniProt P21709)
[17] = molecular target: FGR (human) (UniProt P09769)
Chain of FGR (human) (P09769 whole entry, looked up): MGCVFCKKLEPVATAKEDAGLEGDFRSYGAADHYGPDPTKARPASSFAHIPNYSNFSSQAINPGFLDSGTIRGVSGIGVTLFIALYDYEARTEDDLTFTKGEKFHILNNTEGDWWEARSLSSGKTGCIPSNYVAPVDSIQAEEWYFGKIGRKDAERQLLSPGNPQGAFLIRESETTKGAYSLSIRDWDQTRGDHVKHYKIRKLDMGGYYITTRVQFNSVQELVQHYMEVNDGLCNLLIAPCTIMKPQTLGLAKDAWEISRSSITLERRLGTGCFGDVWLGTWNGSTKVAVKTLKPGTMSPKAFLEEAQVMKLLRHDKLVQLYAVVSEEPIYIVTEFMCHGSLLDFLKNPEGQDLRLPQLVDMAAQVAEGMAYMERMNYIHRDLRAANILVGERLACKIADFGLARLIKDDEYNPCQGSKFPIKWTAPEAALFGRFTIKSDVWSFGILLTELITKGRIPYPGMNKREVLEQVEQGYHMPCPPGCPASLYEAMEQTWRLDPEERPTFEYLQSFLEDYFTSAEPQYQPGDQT

[18] = molecular target: GRK6 (human) (UniProt P43250)
[19] = molecular target: HIPK1 (human) (UniProt Q86Z02)
[20] = molecular target: IRAK1 (human) (UniProt P51617)
[21] = molecular target: JAK1 JH1 catalytic (human) (UniProt P23458)
[22] = molecular target: JAK2 JH1 JH2 (human) (UniProt O60674)
[23] = molecular target: LTK (human) (UniProt P29376)
[24] = molecular target: MAP4K2 (human) (UniProt Q12851)
[25] = molecular target: MARK1 (human) (UniProt Q9P0L2)
[26] = molecular target: MST4 (human) (UniProt Q9P289)
[27] = molecular target: PDGFRA (human) (UniProt P16234)
[28] = molecular target: PDPK1 (human) (UniProt O15530)
[29] = molecular target: PKN1 (human) (UniProt Q16512)
[30] = molecular target: PNCK (human) (UniProt Q6P2M8)
Chain of PNCK (human) (Q6P2M8 whole entry, looked up): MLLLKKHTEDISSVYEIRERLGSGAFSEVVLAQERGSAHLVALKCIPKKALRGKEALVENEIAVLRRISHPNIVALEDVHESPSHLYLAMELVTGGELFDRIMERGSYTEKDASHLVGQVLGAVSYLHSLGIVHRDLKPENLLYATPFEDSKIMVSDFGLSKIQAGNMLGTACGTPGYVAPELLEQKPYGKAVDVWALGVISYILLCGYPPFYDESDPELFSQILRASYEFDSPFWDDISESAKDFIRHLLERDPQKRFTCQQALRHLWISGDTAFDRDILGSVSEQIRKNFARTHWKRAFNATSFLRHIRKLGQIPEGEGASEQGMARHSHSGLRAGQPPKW

[31] = molecular target: PRKCI (human) (UniProt P41743)
Chain of PRKCI (human) (P41743 whole entry, looked up): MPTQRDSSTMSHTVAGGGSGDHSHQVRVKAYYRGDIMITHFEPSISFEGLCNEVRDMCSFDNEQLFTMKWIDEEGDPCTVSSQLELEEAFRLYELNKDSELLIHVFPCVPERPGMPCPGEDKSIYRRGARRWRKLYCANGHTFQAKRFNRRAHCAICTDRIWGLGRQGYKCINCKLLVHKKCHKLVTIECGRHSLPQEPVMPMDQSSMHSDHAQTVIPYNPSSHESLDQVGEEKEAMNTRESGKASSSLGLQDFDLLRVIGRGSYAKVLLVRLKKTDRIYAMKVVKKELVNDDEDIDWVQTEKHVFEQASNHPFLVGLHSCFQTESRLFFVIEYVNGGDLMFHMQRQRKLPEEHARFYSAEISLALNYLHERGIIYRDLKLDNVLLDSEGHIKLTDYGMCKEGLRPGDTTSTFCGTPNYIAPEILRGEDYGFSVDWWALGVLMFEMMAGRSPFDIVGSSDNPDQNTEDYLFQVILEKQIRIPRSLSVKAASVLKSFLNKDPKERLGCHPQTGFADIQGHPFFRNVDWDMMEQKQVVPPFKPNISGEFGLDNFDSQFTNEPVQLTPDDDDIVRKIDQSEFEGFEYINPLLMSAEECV

[32] = molecular target: PRKCZ (human) (UniProt Q05513)
[33] = molecular target: PRKX (human) (UniProt P51817)
[34] = molecular target: PTK2B (human) (UniProt Q14289)
Chain of PTK2B (human) (Q14289 whole entry, looked up): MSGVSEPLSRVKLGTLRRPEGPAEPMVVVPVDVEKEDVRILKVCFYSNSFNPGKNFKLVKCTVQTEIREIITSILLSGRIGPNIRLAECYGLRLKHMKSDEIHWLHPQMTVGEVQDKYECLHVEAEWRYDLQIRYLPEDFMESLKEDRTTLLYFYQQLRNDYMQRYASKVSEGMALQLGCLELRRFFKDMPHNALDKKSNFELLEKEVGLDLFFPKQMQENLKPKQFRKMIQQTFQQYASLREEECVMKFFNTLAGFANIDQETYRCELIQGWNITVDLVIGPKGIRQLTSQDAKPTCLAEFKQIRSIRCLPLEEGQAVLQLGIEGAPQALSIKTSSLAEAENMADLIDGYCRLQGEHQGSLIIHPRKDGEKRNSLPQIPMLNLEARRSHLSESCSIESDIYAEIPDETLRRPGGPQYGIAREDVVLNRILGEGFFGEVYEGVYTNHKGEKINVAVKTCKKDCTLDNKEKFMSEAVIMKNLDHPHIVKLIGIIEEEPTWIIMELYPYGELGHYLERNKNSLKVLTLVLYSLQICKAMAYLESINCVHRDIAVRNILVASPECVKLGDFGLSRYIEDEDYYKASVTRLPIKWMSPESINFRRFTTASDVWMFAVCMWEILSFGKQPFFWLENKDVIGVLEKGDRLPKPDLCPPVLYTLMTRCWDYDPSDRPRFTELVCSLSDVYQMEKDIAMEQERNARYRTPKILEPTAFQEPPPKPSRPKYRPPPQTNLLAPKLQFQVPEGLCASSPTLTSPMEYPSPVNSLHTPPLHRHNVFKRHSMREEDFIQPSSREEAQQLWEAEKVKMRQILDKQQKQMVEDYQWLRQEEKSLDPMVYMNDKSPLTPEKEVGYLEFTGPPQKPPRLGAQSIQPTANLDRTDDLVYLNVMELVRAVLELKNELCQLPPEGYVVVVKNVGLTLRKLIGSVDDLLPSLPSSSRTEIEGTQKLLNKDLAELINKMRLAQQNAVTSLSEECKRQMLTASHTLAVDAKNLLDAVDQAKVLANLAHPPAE

[35] = molecular target: RET (human) (UniProt P07949)
[36] = molecular target: SLK (human) (UniProt Q9H2G2)
[37] = molecular target: SRMS (human) (UniProt Q9H3Y6)
Chain of SRMS (human) (Q9H3Y6 whole entry, looked up): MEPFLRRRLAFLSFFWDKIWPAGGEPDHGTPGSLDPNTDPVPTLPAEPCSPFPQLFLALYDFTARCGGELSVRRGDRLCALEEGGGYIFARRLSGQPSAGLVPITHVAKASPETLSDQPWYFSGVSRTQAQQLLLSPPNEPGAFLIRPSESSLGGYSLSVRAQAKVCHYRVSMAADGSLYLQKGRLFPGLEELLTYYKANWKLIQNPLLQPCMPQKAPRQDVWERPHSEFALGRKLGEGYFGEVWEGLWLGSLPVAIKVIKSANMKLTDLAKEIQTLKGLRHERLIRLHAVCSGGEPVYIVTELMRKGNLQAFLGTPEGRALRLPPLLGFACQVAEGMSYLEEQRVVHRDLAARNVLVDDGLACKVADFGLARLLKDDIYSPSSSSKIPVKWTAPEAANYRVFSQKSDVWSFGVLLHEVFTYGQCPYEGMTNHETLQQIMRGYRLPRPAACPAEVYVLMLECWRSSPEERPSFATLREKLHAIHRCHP

[38] = molecular target: SRPK3 (human) (UniProt Q9UPE1)
Chain of SRPK3 (human) (Q9UPE1 whole entry, looked up): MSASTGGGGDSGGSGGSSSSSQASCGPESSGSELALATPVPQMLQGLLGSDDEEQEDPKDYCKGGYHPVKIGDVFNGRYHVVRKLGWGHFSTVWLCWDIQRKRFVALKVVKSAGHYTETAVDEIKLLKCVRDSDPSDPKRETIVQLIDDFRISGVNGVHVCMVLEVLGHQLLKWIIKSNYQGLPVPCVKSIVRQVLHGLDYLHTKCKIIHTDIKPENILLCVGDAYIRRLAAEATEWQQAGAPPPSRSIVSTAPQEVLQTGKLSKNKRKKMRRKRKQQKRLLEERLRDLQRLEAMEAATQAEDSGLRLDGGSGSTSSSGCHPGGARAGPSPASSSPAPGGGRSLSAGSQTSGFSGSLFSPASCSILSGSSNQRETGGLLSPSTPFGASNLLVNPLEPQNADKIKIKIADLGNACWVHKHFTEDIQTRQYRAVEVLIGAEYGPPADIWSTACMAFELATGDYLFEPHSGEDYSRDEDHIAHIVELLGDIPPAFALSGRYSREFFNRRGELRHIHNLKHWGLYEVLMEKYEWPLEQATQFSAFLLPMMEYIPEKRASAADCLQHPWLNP

[39] = molecular target: STK3 (human) (UniProt Q13188)
[40] = molecular target: STK38 (human) (UniProt Q15208)
[41] = molecular target: SYK (human) (UniProt P43405)
[42] = molecular target: WNK2 (human) (UniProt Q9Y3S1)

Chain of AURKC (human) (Q9UQB9 whole entry, looked up): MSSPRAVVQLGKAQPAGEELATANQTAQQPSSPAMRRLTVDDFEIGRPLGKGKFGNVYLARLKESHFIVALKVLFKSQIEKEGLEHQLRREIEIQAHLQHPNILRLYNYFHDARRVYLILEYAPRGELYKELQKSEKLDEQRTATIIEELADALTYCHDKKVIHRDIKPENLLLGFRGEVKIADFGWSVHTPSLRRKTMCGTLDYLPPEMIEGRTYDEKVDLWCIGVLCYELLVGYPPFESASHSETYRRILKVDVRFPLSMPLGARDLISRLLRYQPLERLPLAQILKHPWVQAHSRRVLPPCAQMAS
Chain of AKT1 (human) (P31749 whole entry, looked up): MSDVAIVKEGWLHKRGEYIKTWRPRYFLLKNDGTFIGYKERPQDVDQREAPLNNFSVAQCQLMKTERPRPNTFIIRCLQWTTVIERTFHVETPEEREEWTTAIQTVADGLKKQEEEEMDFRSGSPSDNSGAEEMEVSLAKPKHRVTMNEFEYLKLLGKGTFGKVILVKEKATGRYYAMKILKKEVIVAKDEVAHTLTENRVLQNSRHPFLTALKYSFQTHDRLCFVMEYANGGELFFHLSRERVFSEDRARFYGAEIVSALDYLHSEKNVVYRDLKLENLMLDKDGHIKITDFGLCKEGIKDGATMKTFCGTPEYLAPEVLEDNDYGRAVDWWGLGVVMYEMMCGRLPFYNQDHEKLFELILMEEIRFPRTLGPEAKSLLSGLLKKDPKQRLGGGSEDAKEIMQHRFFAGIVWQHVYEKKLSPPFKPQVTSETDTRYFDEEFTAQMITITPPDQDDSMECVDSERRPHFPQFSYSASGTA

O=C1NC(=O)/C(=C/c2ccc3c(c2)OC(F)(F)O3)S1
residual activity [1]: 98.5% | residual activity [2]: 97.1% | residual activity [3]: 98.2% | residual activity [4]: 98.1% | residual activity [5]: 98.5% | residual activity [6]: 92.6% | residual activity [7]: 93.5% | residual activity [8]: 88.4% | residual activity [9]: 88% | residual activity [10]: 84.5% | residual activity [11]: 22.6% | residual activity [12]: 99.7% | residual activity [13]: 101% | residual activity [14]: 98.6% | residual activity [15]: 85.1% | residual activity [16]: 90.2% | residual activity [17]: 95.8% | residual activity [18]: 95.4% | residual activity [19]: 95.9% | residual activity [20]: 84.2% | residual activity [21]: 104% | residual activity [22]: 92.9% | residual activity [23]: 95.5% | residual activity [24]: 90.7% | residual activity [25]: 97.2% | residual activity [26]: 86.8% | residual activity [27]: 103% | residual activity [28]: 100% | residual activity [29]: 98.5% | residual activity [30]: 96% | residual activity [31]: 95.9% | residual activity [32]: 103% | residual activity [33]: 101% | residual activity [34]: 110% | residual activity [35]: 102% | residual activity [36]: 98.3% | residual activity [37]: 103% | residual activity [38]: 95.4% | residual activity [39]: 100% | residual activity [40]: 107% | residual activity [41]: 95.3% | residual activity [42]: 113%

CCN(CC)CCNC(=O)c1c(C)[nH]c(/C=C2\C(=O)Nc3ccc(Cl)cc32)c1C
residual activity [1]: 24.7% | residual activity [2]: 89% | residual activity [3]: 102% | residual activity [4]: 74.7% | residual activity [5]: 60% | residual activity [6]: 41.6% | residual activity [7]: 40.1% | residual activity [8]: 102% | residual activity [9]: 86.3% | residual activity [10]: 45.2% | residual activity [11]: 91.4% | residual activity [12]: 82.8% | residual activity [13]: 47.5% | residual activity [14]: 82.7% | residual activity [15]: 97% | residual activity [16]: 89.4% | residual activity [17]: 11.5% | residual activity [18]: 46.3% | residual activity [19]: 96.9% | residual activity [20]: 14.1% | residual activity [21]: 65.8% | residual activity [22]: 54% | residual activity [23]: 11.6% | residual activity [24]: 8.07% | residual activity [25]: 18.1% | residual activity [26]: 73.2% | residual activity [27]: 25.9% | residual activity [28]: 101% | residual activity [29]: 36.5% | residual activity [30]: 70.5% | residual activity [31]: 91.9% | residual activity [32]: 104% | residual activity [33]: 83.9% | residual activity [34]: 30.5% | residual activity [35]: 2.47% | residual activity [36]: 38% | residual activity [37]: 102% | residual activity [38]: 92.8% | residual activity [39]: 16.9% | residual activity [40]: 95.8% | residual activity [41]: 59.2% | residual activity [42]: 101%

COc1cc2ncnc(Nc3cccc(Cl)c3)c2cc1OC
residual activity [1]: 61.8% | residual activity [2]: 96.4% | residual activity [3]: 89.9% | residual activity [4]: 85.8% | residual activity [5]: 82.2% | residual activity [6]: 90.1% | residual activity [7]: 106% | residual activity [8]: 103% | residual activity [9]: 91.1% | residual activity [10]: 97.1% | residual activity [12]: 94.7% | residual activity [13]: 104% | residual activity [14]: 84.6% | residual activity [15]: 0.718% | residual activity [16]: 81.7% | residual activity [17]: 75.3% | residual activity [18]: 96.8% | residual activity [19]: 98.7% | residual activity [20]: 86.6% | residual activity [21]: 90.4% | residual activity [22]: 97.4% | residual activity [23]: 60.3% | residual activity [24]: 98.1% | residual activity [26]: 108% | residual activity [27]: 93.3% | residual activity [28]: 81.9% | residual activity [29]: 96.8% | residual activity [30]: 89.6% | residual activity [31]: 97.5% | residual activity [32]: 102% | residual activity [33]: 92.5% | residual activity [34]: 85.3% | residual activity [35]: 35.3% | residual activity [36]: 64.6% | residual activity [37]: 93.8% | residual activity [38]: 90.1% | residual activity [39]: 124% | residual activity [40]: 104% | residual activity [41]: 86.9% | residual activity [42]: 98.6%

c1ccc(-c2n[nH]cc2-c2ccnc3ccccc23)nc1
residual activity [1]: 77.1% | residual activity [2]: 102% | residual activity [3]: 100% | residual activity [4]: 100% | residual activity [6]: 98.2% | residual activity [7]: 98.7% | residual activity [8]: 94.2% | residual activity [9]: 102% | residual activity [10]: 103% | residual activity [11]: 96.3% | residual activity [12]: 97.4% | residual activity [13]: 102% | residual activity [14]: 113% | residual activity [15]: 81.8% | residual activity [16]: 97.7% | residual activity [17]: 91.9% | residual activity [18]: 94.6% | residual activity [19]: 99.9% | residual activity [20]: 124% | residual activity [21]: 96.7% | residual activity [22]: 107% | residual activity [23]: 92.8% | residual activity [24]: 103% | residual activity [25]: 79.2% | residual activity [26]: 83.4% | residual activity [27]: 98.1% | residual activity [28]: 93.8% | residual activity [29]: 100% | residual activity [30]: 98.3% | residual activity [31]: 99% | residual activity [32]: 115% | residual activity [33]: 102% | residual activity [34]: 96.1% | residual activity [35]: 93.8% | residual activity [36]: 104% | residual activity [37]: 105% | residual activity [38]: 88.9% | residual activity [39]: 102% | residual activity [40]: 111% | residual activity [41]: 99.7% | residual activity [42]: 49.2%
